What was measured:
[1] = target: Protein kinase C theta type (Homo sapiens) (UniProt Q04759); assay: Inhibition of human truncated PKC theta expressed in baculovirus assessed as substrate phosphorylation using fluorescence-labelled peptides as substrate at 8 uM after 90 mins by microfluidic peptide phosphorylation assay
[2] = target: Mitogen-activated protein kinase kinase kinase kinase 4 (Homo sapiens) (UniProt O95819); assay: Inhibition of human HGK catalytic domain expressed in baculovirus assessed as substrate phosphorylation using fluorescence-labelled peptides as substrate at 8 uM after 90 mins by microfluidic peptide phosphorylation assay
Chain of Mitogen-activated protein kinase kinase kinase kinase 4 (Homo sapiens) (O95819 2-1239 limits assumed): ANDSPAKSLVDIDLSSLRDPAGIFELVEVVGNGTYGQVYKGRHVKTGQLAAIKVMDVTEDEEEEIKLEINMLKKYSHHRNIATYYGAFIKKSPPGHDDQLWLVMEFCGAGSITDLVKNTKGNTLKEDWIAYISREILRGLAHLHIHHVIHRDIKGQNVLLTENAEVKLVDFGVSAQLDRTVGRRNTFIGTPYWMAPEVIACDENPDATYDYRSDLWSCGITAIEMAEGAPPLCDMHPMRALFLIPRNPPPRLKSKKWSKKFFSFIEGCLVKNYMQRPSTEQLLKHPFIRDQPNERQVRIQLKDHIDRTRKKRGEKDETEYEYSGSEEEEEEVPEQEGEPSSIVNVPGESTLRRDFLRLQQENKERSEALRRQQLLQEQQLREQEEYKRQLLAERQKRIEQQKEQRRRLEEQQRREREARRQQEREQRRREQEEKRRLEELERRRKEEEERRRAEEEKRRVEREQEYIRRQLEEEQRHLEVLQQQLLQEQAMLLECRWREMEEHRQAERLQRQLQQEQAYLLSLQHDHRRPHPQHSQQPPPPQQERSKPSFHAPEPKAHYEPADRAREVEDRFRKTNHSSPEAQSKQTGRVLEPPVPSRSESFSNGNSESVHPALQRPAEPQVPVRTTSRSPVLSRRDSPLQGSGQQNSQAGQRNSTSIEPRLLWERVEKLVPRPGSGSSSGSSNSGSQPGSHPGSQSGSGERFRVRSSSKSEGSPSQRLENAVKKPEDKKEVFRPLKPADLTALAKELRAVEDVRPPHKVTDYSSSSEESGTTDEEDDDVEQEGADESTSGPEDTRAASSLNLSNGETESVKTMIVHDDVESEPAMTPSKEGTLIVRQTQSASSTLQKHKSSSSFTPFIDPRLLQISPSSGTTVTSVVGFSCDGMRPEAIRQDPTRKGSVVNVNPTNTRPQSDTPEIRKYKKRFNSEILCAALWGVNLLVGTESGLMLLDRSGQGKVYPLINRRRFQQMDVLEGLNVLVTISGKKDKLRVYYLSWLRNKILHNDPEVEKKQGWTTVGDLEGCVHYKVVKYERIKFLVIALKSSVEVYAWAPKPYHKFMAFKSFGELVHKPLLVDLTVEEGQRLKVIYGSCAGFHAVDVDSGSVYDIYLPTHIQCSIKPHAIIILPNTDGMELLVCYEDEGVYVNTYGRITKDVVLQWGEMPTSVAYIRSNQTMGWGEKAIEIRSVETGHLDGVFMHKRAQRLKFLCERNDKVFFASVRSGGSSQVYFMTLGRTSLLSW

[3] = tested on: T1, Receptor-type tyrosine-protein kinase FLT3 (Homo sapiens), P36888 [D835Y]; assay: Inhibition of human FLT3 D835Y mutant catalytic domain expressed in baculovirus assessed as substrate phosphorylation using fluorescence-labelled peptides as substrate at 2 uM after 90 mins by microfluidic peptide phosphorylation assay
T1 sequence (whole entry): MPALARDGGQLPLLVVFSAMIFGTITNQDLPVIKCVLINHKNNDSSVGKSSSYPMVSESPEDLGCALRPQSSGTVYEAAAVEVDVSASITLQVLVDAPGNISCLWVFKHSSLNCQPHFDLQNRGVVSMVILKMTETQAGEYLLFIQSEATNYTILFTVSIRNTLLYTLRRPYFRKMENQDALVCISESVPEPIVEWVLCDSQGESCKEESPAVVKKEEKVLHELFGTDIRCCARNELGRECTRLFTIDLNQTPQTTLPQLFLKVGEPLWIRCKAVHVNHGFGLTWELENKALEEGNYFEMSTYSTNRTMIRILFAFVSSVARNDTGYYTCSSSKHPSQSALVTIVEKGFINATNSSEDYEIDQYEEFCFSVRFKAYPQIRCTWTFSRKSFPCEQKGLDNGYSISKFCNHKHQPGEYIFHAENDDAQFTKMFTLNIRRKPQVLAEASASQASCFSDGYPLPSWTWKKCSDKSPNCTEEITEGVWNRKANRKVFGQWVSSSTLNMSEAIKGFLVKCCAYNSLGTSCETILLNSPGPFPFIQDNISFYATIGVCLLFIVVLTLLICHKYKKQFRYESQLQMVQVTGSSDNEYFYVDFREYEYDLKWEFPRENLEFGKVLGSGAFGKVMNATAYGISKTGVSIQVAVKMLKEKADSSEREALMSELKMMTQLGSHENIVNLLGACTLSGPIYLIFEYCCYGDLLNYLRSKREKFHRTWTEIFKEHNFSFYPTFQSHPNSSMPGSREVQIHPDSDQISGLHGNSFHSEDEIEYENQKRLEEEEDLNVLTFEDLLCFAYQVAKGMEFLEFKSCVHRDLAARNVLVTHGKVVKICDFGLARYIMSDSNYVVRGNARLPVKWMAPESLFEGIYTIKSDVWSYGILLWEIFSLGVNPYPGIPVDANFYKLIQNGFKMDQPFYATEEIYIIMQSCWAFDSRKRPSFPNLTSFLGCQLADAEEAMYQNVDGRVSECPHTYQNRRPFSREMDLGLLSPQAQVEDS

[4] = target: Tyrosine-protein kinase Lck (Homo sapiens) (UniProt P06239); assay: Inhibition of human full length LCK expressed in baculovirus assessed as substrate phosphorylation using fluorescence-labelled peptides as substrate at 1000 uM after 90 mins by microfluidic peptide phosphorylation assay
Chain of Tyrosine-protein kinase Lck (Homo sapiens) (P06239 2-509 limits assumed): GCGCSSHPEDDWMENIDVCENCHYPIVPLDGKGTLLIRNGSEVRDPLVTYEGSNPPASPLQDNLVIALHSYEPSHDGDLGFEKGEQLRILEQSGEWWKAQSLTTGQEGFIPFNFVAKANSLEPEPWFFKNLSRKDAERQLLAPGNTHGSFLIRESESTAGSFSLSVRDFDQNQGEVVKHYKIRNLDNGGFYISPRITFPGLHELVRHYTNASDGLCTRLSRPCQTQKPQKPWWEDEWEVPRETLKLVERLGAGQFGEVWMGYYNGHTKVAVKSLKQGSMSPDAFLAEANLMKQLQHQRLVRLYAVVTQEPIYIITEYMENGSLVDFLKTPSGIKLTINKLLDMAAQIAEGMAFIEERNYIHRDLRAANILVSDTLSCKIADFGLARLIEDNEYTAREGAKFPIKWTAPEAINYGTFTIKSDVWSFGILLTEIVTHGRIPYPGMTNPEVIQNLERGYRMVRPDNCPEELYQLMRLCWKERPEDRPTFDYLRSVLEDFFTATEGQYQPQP

[5] = target: T2, Mitogen-activated protein kinase 13 (Homo sapiens) (UniProt O15264); assay: Inhibition of human full length p38 delta expressed in Escherichia coli cell assessed as substrate phosphorylation using fluorescence-labelled peptides as substrate at 0.06 uM after 90 mins by microfluidic peptide phosphorylation assay
T2 sequence (whole entry): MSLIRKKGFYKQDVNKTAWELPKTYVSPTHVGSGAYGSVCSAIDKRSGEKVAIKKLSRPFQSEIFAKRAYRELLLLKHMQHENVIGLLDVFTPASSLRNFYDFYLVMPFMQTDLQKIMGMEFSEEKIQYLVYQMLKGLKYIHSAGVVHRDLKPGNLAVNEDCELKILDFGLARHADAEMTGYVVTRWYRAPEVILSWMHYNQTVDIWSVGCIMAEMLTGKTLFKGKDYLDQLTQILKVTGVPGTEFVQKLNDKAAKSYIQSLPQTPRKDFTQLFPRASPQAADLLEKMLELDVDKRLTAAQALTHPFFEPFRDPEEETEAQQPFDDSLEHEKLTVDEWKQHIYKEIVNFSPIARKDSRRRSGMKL

[6] = target: Cyclin-dependent kinase 2 (Homo sapiens) (UniProt P24941); assay: Inhibition of human full length CDK2 expressed in baculovirus assessed as substrate phosphorylation using fluorescence-labelled peptides as substrate at 0.06 uM after 90 mins by microfluidic peptide phosphorylation assay
[7] = target: Protein kinase C gamma type (Homo sapiens) (UniProt P05129); assay: Inhibition of human truncated PKC gamma expressed in baculovirus assessed as substrate phosphorylation using fluorescence-labelled peptides as substrate at 9 uM after 90 mins by microfluidic peptide phosphorylation assay
[8] = target: T3, Serine/threonine-protein kinase Sgk3 (Homo sapiens) (UniProt Q96BR1); assay: Inhibition of human full length SGK3 expressed in baculovirus assessed as substrate phosphorylation using fluorescence-labelled peptides as substrate at 9 uM after 90 mins by microfluidic peptide phosphorylation assay
T3 sequence (whole entry): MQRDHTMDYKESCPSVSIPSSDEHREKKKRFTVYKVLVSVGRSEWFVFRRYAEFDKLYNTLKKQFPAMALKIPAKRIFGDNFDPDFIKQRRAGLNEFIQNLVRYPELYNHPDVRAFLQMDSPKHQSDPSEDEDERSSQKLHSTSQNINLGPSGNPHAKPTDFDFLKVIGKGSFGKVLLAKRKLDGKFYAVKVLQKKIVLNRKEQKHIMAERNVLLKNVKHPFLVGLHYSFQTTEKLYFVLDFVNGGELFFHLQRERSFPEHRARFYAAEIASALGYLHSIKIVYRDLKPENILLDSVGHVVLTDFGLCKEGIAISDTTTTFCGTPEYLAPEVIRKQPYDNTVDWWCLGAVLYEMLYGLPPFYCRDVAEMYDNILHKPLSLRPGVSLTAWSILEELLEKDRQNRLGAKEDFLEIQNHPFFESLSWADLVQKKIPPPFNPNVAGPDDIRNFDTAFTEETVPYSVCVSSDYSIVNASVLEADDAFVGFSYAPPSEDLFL

[9] = target: Serine/threonine-protein kinase PAK 2 (Homo sapiens) (UniProt Q13177); assay: Inhibition of human truncated PAK2 expressed in Escherichia coli cell assessed as substrate phosphorylation using fluorescence-labelled peptides as substrate at 9 uM after 90 mins by microfluidic peptide phosphorylation assay
Chain of Serine/threonine-protein kinase PAK 2 (Homo sapiens) (Q13177 whole entry, the tested form may be a part): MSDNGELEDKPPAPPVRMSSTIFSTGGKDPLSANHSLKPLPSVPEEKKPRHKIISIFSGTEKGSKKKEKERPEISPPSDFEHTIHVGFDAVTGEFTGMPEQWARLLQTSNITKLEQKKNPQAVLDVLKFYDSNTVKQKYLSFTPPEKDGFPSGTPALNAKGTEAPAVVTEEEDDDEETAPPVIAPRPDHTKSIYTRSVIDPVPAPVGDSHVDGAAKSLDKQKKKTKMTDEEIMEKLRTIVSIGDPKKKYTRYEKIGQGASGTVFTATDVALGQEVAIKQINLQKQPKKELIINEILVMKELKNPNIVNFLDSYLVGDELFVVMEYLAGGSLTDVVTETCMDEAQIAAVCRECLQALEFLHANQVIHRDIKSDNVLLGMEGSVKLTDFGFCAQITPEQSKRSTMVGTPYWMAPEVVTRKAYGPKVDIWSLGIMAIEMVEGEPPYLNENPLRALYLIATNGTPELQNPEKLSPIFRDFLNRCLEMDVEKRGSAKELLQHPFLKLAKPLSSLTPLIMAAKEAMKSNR

Chain of Protein kinase C theta type (Homo sapiens) (Q04759 whole entry, looked up, the tested form may be a part): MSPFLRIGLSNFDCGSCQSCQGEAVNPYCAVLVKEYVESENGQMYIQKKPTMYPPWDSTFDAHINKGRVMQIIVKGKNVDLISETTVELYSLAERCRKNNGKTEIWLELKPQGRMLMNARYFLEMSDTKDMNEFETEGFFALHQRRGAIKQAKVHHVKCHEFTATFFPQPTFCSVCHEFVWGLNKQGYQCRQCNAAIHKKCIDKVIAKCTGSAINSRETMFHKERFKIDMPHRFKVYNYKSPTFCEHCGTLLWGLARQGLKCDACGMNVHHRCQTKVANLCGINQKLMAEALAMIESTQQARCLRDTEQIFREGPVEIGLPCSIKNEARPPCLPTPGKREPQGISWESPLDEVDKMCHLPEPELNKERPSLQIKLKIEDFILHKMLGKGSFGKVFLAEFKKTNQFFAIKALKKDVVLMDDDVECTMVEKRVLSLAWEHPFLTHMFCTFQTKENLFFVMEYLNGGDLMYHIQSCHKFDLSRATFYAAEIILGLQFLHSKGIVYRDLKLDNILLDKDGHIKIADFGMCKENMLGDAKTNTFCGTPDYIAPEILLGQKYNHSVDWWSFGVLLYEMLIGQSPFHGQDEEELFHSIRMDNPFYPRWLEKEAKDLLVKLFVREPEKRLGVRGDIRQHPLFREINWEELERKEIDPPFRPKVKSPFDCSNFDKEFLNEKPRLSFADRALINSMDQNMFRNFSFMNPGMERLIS

## NCC1CCN(c2ncnc3[nH]ccc23)CC1
[1]
  inhibition: 67.5%
[2]
  inhibition: 11.5%

## NC1CCN(c2ncnc3[nH]ccc23)CC1
[3]
  inhibition: 0%

## c1cnc2[nH]ccc2c1
[4]
  inhibition: 29%

## NC1(Cc2ccc(Cl)cc2)CCN(c2ncnc3[nH]ccc23)CC1
[5]
  inhibition: 0%
[6]
  inhibition: 1%

## NCC1CN(c2ncnc3[nH]c4cnccc4c23)CCO1 (centres undefined)
[7]
  inhibition: 34.5%
[8]
  inhibition: 44%
[9]
  inhibition: 3%

Reference: ChEMBL document CHEMBL3132769, “Fragment growing to retain or alter the selectivity of anchored kinase hinge-binding fragments” (Medchemcomm, 2014)
